# Measured values reported in PubChem BioAssay AID1996.
# Conditions: buffer; pH 7.4; 200.0 µM
row,solubility kinetic,Structure (SMILES)
1,34.7 µg/mL,COc1cc2c(cc1OC)CN(C1CCC(C)CC1)CC2 (stereo unspecified)
2,> 51.4 µg/mL,COc1ccc(CCNC(=O)c2ccnc(C(C)(C)C)c2)cc1OC
3,37 µg/mL,Cc1ccc(S(N)(=O)=O)cc1NC(=O)C(c1ccccc1)c1ccccc1
4,> 55.8 µg/mL,Cc1onc(-c2c(Cl)cccc2Cl)c1NC(=O)N1CCSCC1
5,> 42.8 µg/mL,O=C(NC1=NCCS1)c1ccccc1Br
6,> 51.1 µg/mL,Cc1ccc(C)c(NC(=O)CSc2nnc(-c3ccncc3)o2)c1
7,> 32.6 µg/mL,Cc1ccc(NC(=O)Nc2ccno2)cc1
8,> 58.7 µg/mL,CS(=O)(=O)O.OC(CCN1CCCCC1)(c1ccccc1)c1ccccc1
9,< 0.3 µg/mL,O=[N+]([O-])c1ccccc1/C=C/c1ccc2ccccc2n1
10,53.1 µg/mL,Cc1ccccc1S(=O)(=O)NCc1ccc(N2CCN(C)CC2)cc1
11,5.9 µg/mL,CC(=O)c1c(C)[nH]c(C(=O)Nc2cccc3ccccc23)c1C
12,> 28.7 µg/mL,CCn1cnc2cc([N+](=O)[O-])ccc21
13,38.2 µg/mL,Oc1cccnc1Sc1cccc(C(F)(F)F)c1
14,> 49.7 µg/mL,O=C1OCCC1Sc1nnc(-c2ccc(Cl)cc2Cl)o1 (stereo unspecified)
15,< 0.4 µg/mL,CC(C)(C)c1ccc(Oc2ncccc2NC(=O)c2cccs2)cc1
16,> 65.6 µg/mL,CCC(=O)N(C(=O)CC)N1CCN(c2ccncc2S(=O)(=O)N2CCCCC2)CC1
17,41.7 µg/mL,CCCn1c(CCNC(=O)c2ccco2)nc2ccccc21
18,> 43.7 µg/mL,O=C(COc1ncnc2sccc12)NC1CCCCC1
19,29.8 µg/mL,Nc1ncnc2nc(SCC(=O)Nc3ccccc3F)[nH]c12
20,> 30.2 µg/mL,O=c1c2ccccc2nc2n1CCCN2
21,39.9 µg/mL,Cc1ccccc1C(=O)OC1CCCN(C)C1.Cl (stereo unspecified)
22,> 45.9 µg/mL,Cc1cccc(C(=O)OCC(=O)N2CCCC2=O)c1[N+](=O)[O-]
23,9.8 µg/mL,Cc1oncc1C(=O)Nc1ccc2ccccc2c1

row,solubility kinetic,Structure (SMILES)
1,9.3 µg/mL,O=C(NC1CCSc2ccccc21)c1ccccc1Cl (stereo unspecified)
2,> 47.8 µg/mL,CCOc1ccccc1CNC(=O)CNC(=O)c1cccs1
3,> 48.7 µg/mL,Cc1ccc(S(=O)(=O)N(C)C)cc1NC(=O)C1CCCCC1
4,44.2 µg/mL,Cc1ccccc1N1CCN(CC(=O)Nc2nccs2)CC1
5,46.8 µg/mL,CC(=O)N1CCN(CC(=O)Nc2ccc(C)c(F)c2)CC1.Cl
6,1.9 µg/mL,CCCc1nc(SCC(=O)NC2CCCC2)c2ccccc2n1
7,4.7 µg/mL,Cc1ccc(NC(=O)c2noc3c2CCC3)cc1C
8,1.5 µg/mL,CCOc1ccc(N=Cc2ccc3ccccc3c2)cc1
9,> 64.6 µg/mL,O=C(CN1C(=O)NC(Cc2c[nH]c3ccccc23)C1=O)Nc1ccccc1C(F)(F)F (stereo unspecified)
10,3.5 µg/mL,N#CC1=C(N)Oc2cc(N)ccc2C1c1cccc(Br)c1 (stereo unspecified)
11,12.3 µg/mL,O=C1C2C3C=CC(C3)C2C(=O)N1c1ccc2ccccc2c1 (stereo unspecified)
12,< 0.6 µg/mL,O=C1OCc2ccc(NC(=O)c3sccc3Cl)cc21
13,23.7 µg/mL,O=C(N[C@@H](Cc1ccccc1)C(=O)N1CCN(S(=O)(=O)c2ccccc2F)CC1)c1ccco1
14,> 43.6 µg/mL,CCCN(CC1CC1)C(=S)Nc1ccc(C(C)=O)cc1
15,11.8 µg/mL,COCCNc1c2c(c(C#N)c3nc4ccccc4n13)CCCC2
16,> 38.3 µg/mL,Cc1ccc(NC(=O)NCc2ccccn2)c(C)c1
17,> 46.1 µg/mL,CC(=O)Nc1ccc(S(=O)(=O)NC(C)(C#N)C2CC2)cc1 (stereo unspecified)
18,1.7 µg/mL,COc1ccc(-n2c(=S)[nH]c3sc(-c4ccccc4)cc3c2=O)c(OC)c1
19,> 43.4 µg/mL,CC(=O)Nc1c2c(nn1-c1ccccc1C)CS(=O)C2 (stereo unspecified)
20,3 µg/mL,O=S(=O)(NCc1c(Cl)cccc1Oc1ccccc1)c1ccccc1
21,> 35.7 µg/mL,O=C(NCc1ccco1)C(=S)N1CCCC1
22,1 µg/mL,COC(=O)c1ccc(CN2CCc3ccccc32)cc1
23,45.6 µg/mL,C=CCN=C1SC(C)(C)C(=O)N1S(=O)(=O)c1ccc(C)cc1

row,solubility kinetic,Structure (SMILES)
1,> 53.1 µg/mL,O=C(O)/C=C/C(=O)Nc1ccc(OC(F)(F)F)cc1Br
2,> 32.1 µg/mL,Cc1ccc(N)cc1S(=O)(=O)N(C)C
3,0.9 µg/mL,Cc1cccc(CC(=O)c2c[nH]c3ccccc23)c1
4,5.6 µg/mL,CCOc1ccc(C(=O)CCC(=O)Nc2ccc(C)cn2)cc1
5,> 52.1 µg/mL,c1ccc(-n2cc(CN3CCCC3)c(-c3ccc4c(c3)OCO4)n2)cc1
6,38.2 µg/mL,COc1ccccc1N/C(N)=N/c1nc(C)cc(C)n1
7,47.4 µg/mL,O=C(c1ccccc1)c1ccc(C(=O)N2CCN(c3ccc(O)cc3)CC2)cc1
8,> 43.3 µg/mL,COc1ccc(NC(=S)Nc2ccccc2)c(OC)c1
9,< 0.3 µg/mL,O=C(Nc1ccc2c(c1)OCCO2)C(=O)c1c[nH]c2ccccc12
10,5.1 µg/mL,COc1ccc(C(C)=O)cc1COc1cccnc1[N+](=O)[O-]
11,4.6 µg/mL,COc1cc2c(cc1OC)C(NC(=O)c1ccc(C)cc1)CC2=O (stereo unspecified)
12,9.6 µg/mL,Cc1ccc(C(=O)Nc2nccs2)s1
13,34.3 µg/mL,Cc1ccccc1N1CCN(Cc2ccc([N+](=O)[O-])o2)CC1
14,> 49 µg/mL,COc1ccc(/C(C)=N/NC(=O)CNC(=O)c2cccnc2)cc1
15,> 49.4 µg/mL,COC(=O)c1cn(Cc2ccc(C(F)(F)F)cc2)cc(F)c1=O
16,12.7 µg/mL,CC1CN(C(=O)COC(=O)c2cc3ccccc3cc2O)CC(C)O1 (stereo unspecified)
17,> 55.1 µg/mL,CC(NC(=O)CNC(=O)c1ccccc1Br)c1cccs1 (stereo unspecified)
18,> 43 µg/mL,O=S(=O)(NC1=NCCCCC1)c1ccccc1Cl
19,> 39.3 µg/mL,OCCCNC(=S)Nc1ccc2nccnc2c1
20,> 34.2 µg/mL,Cc1ccc(CNC(=O)Cn2cccc2)cc1
21,47.3 µg/mL,COc1cccc(NC(=S)N(CCN2CCCCC2)Cc2ccco2)c1
22,44.6 µg/mL,NC(=O)c1ccc(NC(=O)CCC(=O)c2cccs2)cc1
23,47.5 µg/mL,Cc1ccc(N(Cc2cc(=O)[nH]c3ccccc23)C(=O)C(C)C)cc1

row,solubility kinetic,Structure (SMILES)
1,25 µg/mL,CCOc1ccc(C2=CSC3=NCCN23)cc1Cl
2,0.5 µg/mL,CCOc1ncccc1C(=O)Nc1cc(S(=O)(=O)N2CCOCC2)ccc1OCC(F)(F)F
3,4.2 µg/mL,O=C(COc1ccc(C(=O)c2ccc(F)cc2)cc1)Nc1cccc(S(=O)(=O)N2CCOCC2)c1
4,> 35 µg/mL,CC1=C([N+](=O)[O-])C(c2ccccc2)NC(=O)N1 (stereo unspecified)
5,7.3 µg/mL,Cc1c(Cl)cccc1NC(=O)C1CCCN(S(C)(=O)=O)C1 (stereo unspecified)
6,4.1 µg/mL,Cc1ccc(C(=O)CNc2ccccc2)cc1
7,30.2 µg/mL,Cc1cnc(NC(=O)c2ccncc2)s1
8,> 43.1 µg/mL,Br.CCCCCCCCn1ccc(=N)cc1
9,> 44.2 µg/mL,O=C(C1CCC(=O)N1Cc1cccs1)N1CCOCC1 (stereo unspecified)
10,> 48.9 µg/mL,O=C(COc1ccccc1)NS(=O)(=O)c1ccc(Cl)cc1
11,2.9 µg/mL,Cc1ccc(CC2CC(=O)N(CCc3ccccc3)C2=O)cc1 (stereo unspecified)
12,> 47 µg/mL,CC(=O)Oc1ccc(NC(=O)Cc2ccccc2)c(C(=O)O)c1
13,> 35.8 µg/mL,Cl.N=c1ccn(Cc2ccc(F)cc2)cc1
14,4.8 µg/mL,Cc1cccc(NC(=O)c2ccc(COc3ccccc3)o2)n1
15,4.9 µg/mL,CC(=O)Nc1ccc2nc(NC(=O)c3ccco3)sc2c1
16,10.7 µg/mL,CCN(CC)c1cc(C)c2cc(NC(=O)c3ccccc3F)ccc2n1
17,< 0.3 µg/mL,O=C(Nc1ccccc1N1CCCCC1)c1cccc(Cl)c1
18,47 µg/mL,O=C(O)c1cccnc1SCC(=O)N1CCCc2ccccc21
19,> 52.5 µg/mL,CC(=O)c1c(C)[nH]c(C(=O)OCC(=O)Nc2cccnc2Cl)c1C
20,> 29 µg/mL,O=C(O)CCNC(=O)c1ccccc1
21,2.1 µg/mL,Cc1cc(NC(=O)c2ccc3c(c2)C(=O)N(CC(C)C)C3=O)no1
22,40.5 µg/mL,CCOC(=O)N1CCN(C(=O)c2cc3cc(F)ccc3[nH]2)CC1
23,> 48.9 µg/mL,Cc1cccc(C(=O)OC(C)CN2C(C)CCCC2C)c1.Cl (stereo unspecified)

row,solubility kinetic,Structure (SMILES)
1,8.8 µg/mL,C=CCNc1nc(C(=O)OC(C)C(=O)c2ccc(C)cc2)cs1 (stereo unspecified)
2,> 44.8 µg/mL,COc1ccc2[nH]c(C(=O)NCCCn3ccnc3)cc2c1
3,1.2 µg/mL,O=C(Nc1ccc(NC(=O)C2CCCCC2)nc1)c1cccc(F)c1
4,43.7 µg/mL,COc1ccccc1C(=O)NCCC(=O)Nc1ccc(C)cn1
5,47.5 µg/mL,CN1CCN(c2nc(Nc3ccccc3)nc(N)c2[N+](=O)[O-])CC1
6,5.6 µg/mL,Cc1ccc(C(=O)Nc2ccc(N3CCOCC3)nc2N2CCOCC2)cc1
7,6.4 µg/mL,N#CC(=NCc1cccnc1)C1=C(O)c2ccccc2C1=O
8,11.7 µg/mL,Cc1ccc(NC(=O)CCOc2ccccc2)cc1
9,< 0.2 µg/mL,Cc1cc(C)c(C#N)c(Nc2cccc(Br)c2)n1
10,36.5 µg/mL,CC(C)OC(=O)NCCOC(=O)Nc1ccc(Cl)cc1
11,6.8 µg/mL,Cc1onc(NC(=O)NC(=O)c2ccccc2F)c1Br
12,1 µg/mL,NC(=O)COc1ccc2oc(=O)cc(-c3cc4ccccc4o3)c2c1
13,28.2 µg/mL,CSc1ccccc1C(=O)Nc1cccc([N+](=O)[O-])c1
14,> 47.7 µg/mL,O=C(Nc1cc(Cl)ccc1N1CCOCC1)c1ccncc1
15,< 0.6 µg/mL,CCOC(=O)c1cc2sccc2n1CC(=O)C(C)(C)C
16,> 44.6 µg/mL,O=C(O)CSc1cn(Cc2ccccc2)c2ccccc12
17,> 36.8 µg/mL,COc1ccc(NC2=CC(=O)CC(C)(C)C2)cc1
18,> 35.6 µg/mL,O=C1CSC(=Nc2cccc([N+](=O)[O-])c2)N1
19,9.6 µg/mL,CC(Oc1ccc(Cl)cc1C(N)=O)C(=O)N1CCc2ccccc21 (stereo unspecified)
20,48.8 µg/mL,O=C(NCCCO)C(=O)Nc1cc2c3c(c1)CCC(=O)N3CCC2
21,0.4 µg/mL,COc1ccccc1NC(=O)NC(=O)c1ccccc1
22,17.8 µg/mL,O=C1NC(=O)/C(=C/c2ccccc2Cl)N1
23,32.4 µg/mL,COc1ccc(CCNC(=O)C2CC2)cc1

row,Structure (SMILES),solubility kinetic
1,CCCC[N+]12CCC(CC1)C(Cc1ccccc1)C2.[Br-] (stereo unspecified),> 50.7 µg/mL
2,CCOc1ccc(N2C(=O)CC(=O)NC2=O)cc1,> 37.2 µg/mL
3,COc1ccc(CC(C)Nc2cccc(F)c2)cc1 (stereo unspecified),1 µg/mL
4,CSc1ccc(CNC(C)C(O)c2ccccc2)cc1.Cl (stereo unspecified),> 48.6 µg/mL
5,CN(C)CC(=O)N1CCc2ccccc2C1.O=C(O)C(=O)O,> 46.2 µg/mL
6,CCOC(=O)C(O)(c1ccc(N=c2ccccn2C)cc1)C(F)(F)F (stereo unspecified),46.3 µg/mL
